The record followed here is US20090137572A1, “2-substituted-4-heteroaryl-pyrimidines useful for the treatment of proliferative disorders” (priority 2004, published 2009).

The target of one data set is T1, Aurora A kinase (Homo sapiens, UniProt O14965).
T1 construct: purchased
T1 sequence (O14965 1-403): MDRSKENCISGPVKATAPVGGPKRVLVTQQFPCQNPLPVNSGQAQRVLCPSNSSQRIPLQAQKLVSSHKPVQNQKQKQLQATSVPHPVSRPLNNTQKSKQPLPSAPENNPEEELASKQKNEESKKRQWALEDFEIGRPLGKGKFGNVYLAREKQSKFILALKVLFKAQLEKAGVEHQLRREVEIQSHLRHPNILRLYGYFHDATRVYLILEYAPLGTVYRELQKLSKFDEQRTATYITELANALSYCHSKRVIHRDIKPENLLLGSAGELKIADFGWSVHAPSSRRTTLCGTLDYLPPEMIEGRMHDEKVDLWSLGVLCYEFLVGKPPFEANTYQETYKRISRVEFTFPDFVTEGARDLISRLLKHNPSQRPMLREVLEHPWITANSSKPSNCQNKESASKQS
In words: Aurora-A (human) kinase assay (Kemptide substrate). The note with it: pIC50 is -log(IC50, M); 15 μM ATP; read-out: Kinase Inhibition pIC50 Aurora A kinase (converted). It is filed as biochemical. In short, it runs like this:
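Radiometric filter-binding assay: commercial aurora-A kinase (5-10 ng) with 200 μM Kemptide in MOPS/EDTA pH 7.0, started with 10 mM Mg acetate and 15 μM ATP plus [γ-33P]-ATP. Incubated 40 min at room temperature, stopped with phosphoric acid, incorporated 33P counted by scintillation.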

For `CCNc1nc(C)c(-c2ccnc(Nc3cc(Cl)c(N4CCOCC4)c(Cl)c3)n2)s1` [Compound 133, (3,5-Dichloro-4-morpholin-4-yl-phenyl)-[4-(2-ethylamino-4-methyl-thiazol-5-yl)-pyrimidin-2-yl]-amine], the melting point was over 300 °C.
For `CC(=O)NCc1cccc(Nc2nccc(-c3sc(NCc4ccccc4)nc3C)n2)c1` [Compound 118, N-{3-[4-(2-Benzylamino-4-methyl-thiazol-5-yl)-pyrimidin-2-ylamino]-benzyl}-acetamide], the melting point was in the range of 181 to 183 °C. Also, the IC50 on Aurora A kinase was 501 nM.
In turn, `Cc1nc(-c2cccnc2)sc1-c1ccnc(Nc2ccc3c(c2)OCO3)n1` [Compound 177, Benzo[1,3]dioxol-5-yl-[4-(4-methyl-2-pyridin-3-yl-thiazol-5-yl)-pyrimidin-2-yl]-amine] yielded a melting point of 187 to 188 °C. Further, the IC50 at Aurora A kinase is 2000 nM.
The like results for `CCc1cc(-c2nc(C)c(-c3ccnc(Nc4ccc(CNC(C)=O)cc4)n3)s2)ccn1` [Compound 104, N-(4-{4-[2-(2-Ethyl-pyridin-4-yl)-4-methyl-thiazol-5-yl]-pyrimidin-2-ylamino}-benzyl)-acetamide] were, in that order, 224 to 225 °C and 63.1 nM.
Molecule `CC(=O)NCc1cccc(Nc2nccc(-c3sc(-c4ncc(C(F)(F)F)cc4Cl)nc3C)n2)c1` [Compound 109, N-(3-{4-[2-(3-Chloro-5-trifluoromethyl-pyridin-2-yl)-4-methyl-thiazol-5-yl]-pyrimidin-2-ylamino}-benzyl)-acetamide] had a melting point of 217 to 218 °C. Besides, the IC50 at Aurora A kinase was 631 nM.
The like results for `COc1cc(Nc2nccc(-c3sc(NCCc4ccccc4)nc3C)n2)cc(OC)c1` [Compound 159, (3,5-Dimethoxy-phenyl)-[4-(4-methyl-2-phenethylamino-thiazol-5-yl)-pyrimidin-2-yl]-amine] were, in that order, 201 to 202 °C and 794 nM.
The like results for `Cc1nc(Nc2ccccc2)sc1-c1ccnc(Nc2ccc(N3CCN(Cc4ccccc4)CC3)cc2)n1` [Compound 176, [4-(4-Benzyl-piperazin-1-yl)-phenyl]-[4-(4-methyl-2-phenylamino-thiazol-5-yl)-pyrimidin-2-yl]-amine] were, in that order, 227 to 229 °C and 6310 nM.
The molecule `Cc1nc(C)c(-c2ccnc(Nc3ccc(N4CCCC4)cc3)n2)s1` [Compound 199, [4-(2,4-Dimethyl-thiazol-5-yl)-pyrimidin-2-yl]-(4-pyrrolidin-1-yl-phenyl)-amine] yielded a melting point of 192 to 193 °C. In addition, at Aurora A kinase, the IC50 is 631 nM.
In the case of `CC(=O)NCc1cccc(Nc2nccc(-c3sc(N(C)c4cc(Cl)cc(Cl)c4)nc3C)n2)c1` [Compound 125, N-[3-(4-{2-[(3,5-Dichloro-phenyl)-methyl-amino]-4-methyl-thiazol-5-yl}-pyrimidin-2-ylamino)-benzyl]-acetamide], the melting point lay within 213 to 214 °C. Moreover, on Aurora A kinase, the IC50 is 2510 nM.
Turning to `Cc1nc(-c2nc(C)c(-c3ccnc(Nc4cc(Cl)c(N5CCOCC5)c(Cl)c4)n3)s2)cs1` [Compound 137, (3,5-Dichloro-4-morpholin-4-yl-phenyl)-[4-(4,2′-dimethyl-[2,4′]bithiazolyl-5-yl)-pyrimidin-2-yl]-amine], the melting point was over 300 °C.
`Cc1nc(-c2cccnc2)sc1-c1ccnc(Nc2cc(Cl)c(N3CCOCC3)c(Cl)c2)n1` [Compound 126, (3,5-Dichloro-4-morpholin-4-yl-phenyl)-[4-(4-methyl-2-pyridin-3-yl-thiazol-5-yl)-pyrimidin-2-yl]-amine] yielded a melting point of 276 to 278 °C. The IC50 on Aurora A kinase is 251 nM.
The like results for `Cc1nc(C)c(-c2ccnc(Nc3ccc(N4CCCCC4)c(C)c3)n2)s1` [Compound 205, [4-(2,4-Dimethyl-thiazol-5-yl)-pyrimidin-2-yl]-(3-methyl-4-piperidin-1-yl-phenyl)-amine] were, in that order, 159 to 160 °C and 398 nM.
Take `Cc1nc(-c2nc(C)c(-c3ccnc(Nc4ccc(N5CCOCC5)cc4)n3)s2)cs1` [Compound 135, [4-(4,2′-Dimethyl-[2,4′]bithiazolyl-5-yl)-pyrimidin-2-yl]-(4-morpholin-4-yl-phenyl)-amine]: the melting point was in the range of 262 to 263 °C. In addition, at Aurora A kinase, the IC50 is 1260 nM.
As to `CCNc1nc(C)c(-c2ccnc(Nc3cc(OC)cc(OC)c3)n2)s1` [Compound 160, (3,5-Dimethoxy-phenyl)-[4-(2-ethylamino-4-methyl-thiazol-5-yl)-pyrimidin-2-yl]-amine], the melting point is 235 to 237 °C. Moreover, the IC50 on Aurora A kinase was 794 nM.
Regarding `COc1cc(Nc2nccc(-c3sc(-c4cccnc4)nc3C)n2)cc(OC)c1` [Compound 155, (3,5-Dimethoxy-phenyl)-[4-(4-methyl-2-pyridin-3-yl-thiazol-5-yl)-pyrimidin-2-yl]-amine], the melting point was 229 to 230 °C.
Same read-out and setting: to `COc1cc(Nc2nccc(-c3sc(Nc4ccccc4)nc3C)n2)cc(OC)c1` [Compound 171, (3,5-Dimethoxy-phenyl)-[4-(4-methyl-2-phenylamino-thiazol-5-yl)-pyrimidin-2-yl]-amine] belongs 191 to 194 °C.
As to `CCNc1nc(C)c(-c2ccnc(Nc3ccc(N4CCCCC4)c(C)c3)n2)s1` [Compound 207, [4-(2-Ethylamino-4-methyl-thiazol-5-yl)-pyrimidin-2-yl]-(3-methyl-4-piperidin-1-yl-phenyl)-amine], the melting point was 213 to 214 °C. Moreover, the IC50 at Aurora A kinase was 501 nM.
In turn, `Cc1nc(N(C)c2ccc(Cl)cc2)sc1-c1ccnc(Nc2ccc(N3CCOCC3)cc2)n1` [Compound 124, (4-{2-[(4-Chloro-phenyl)-methyl-amino]-4-methyl-thiazol-5-yl}-pyrimidin-2-yl)-(4-morpholin-4-yl-phenyl)-amine] came in with a melting point of 245 to 246 °C. Further, the IC50 on Aurora A kinase is 200 nM.
In turn, `CC(=O)N1CCN(c2ccc(Nc3nccc(-c4sc(-c5ccc(N6CCOCC6)cc5)nc4C)n3)cc2)CC1` [Compound 148, 1-[4-(4-{4-[4-Methyl-2-(4-morpholin-4-yl-phenyl)-thiazol-5-yl]-pyrimidin-2-ylamino}-phenyl)-piperazin-1-yl]-ethanone] had a melting point of 250 to 252 °C. Further, the IC50 on Aurora A kinase was 316 nM.
The like results for `CC(=O)N1CCN(c2ccc(Nc3nccc(-c4sc(Nc5ccccc5)nc4C)n3)cc2)CC1` [Compound 172, 1-(4-{4-[4-(4-Methyl-2-phenylamino-thiazol-5-yl)-pyrimidin-2-ylamino]-phenyl}-piperazin-1-yl)-ethanone] were, in that order, 245 to 246 °C and 251 nM.
Regarding `Cc1nc(Nc2ccccc2)sc1-c1ccnc(Nc2ccc(N3CCOCC3)cc2)n1` [Compound 167, [4-(4-Methyl-2-phenylamino-thiazol-5-yl)-pyrimidin-2-yl]-(4-morpholin-4-yl-phenyl)-amine], the melting point lay within 290 to 291 °C.
Take `CCc1cc(-c2nc(C)c(-c3ccnc(Nc4ccc(S(=O)(=O)NCCO)cc4)n3)s2)ccn1` [Compound 102, 4-{4-[2-(2-Ethyl-pyridin-4-yl)-4-methyl-thiazol-5-yl]-pyrimidin-2-ylamino}-N-(2-hydroxy-ethyl)-benzenesulfonamide]: the melting point fell in the range of 233 to 234 °C. The IC50 at Aurora A kinase was 63.1 nM.
The like results for `Cc1nc(N(C)c2cc(Cl)cc(Cl)c2)sc1-c1ccnc(Nc2ccc(N3CCOCC3)c(Cl)c2)n1` [Compound 128, (3-Chloro-4-morpholin-4-yl-phenyl)-(4-{2-[(3,5-dichloro-phenyl)-methyl-amino]-4-methyl-thiazol-5-yl}-pyrimidin-2-yl)-amine] were, in that order, 224 to 225 °C and 100 nM.
The like results for `Cc1nc(-c2cccnc2)sc1-c1ccnc(Nc2ccc(N3CCCC3)cc2)n1` [Compound 198, [4-(4-Methyl-2-pyridin-3-yl-thiazol-5-yl)-pyrimidin-2-yl]-(4-pyrrolidin-1-yl-phenyl)-amine] were, in that order, 212 to 214 °C and 2000 nM.
`Cc1nc(NCc2ccccc2)sc1-c1ccnc(Nc2ccc(N3CCOCC3)cc2)n1` [Compound 117, [4-(2-Benzylamino-4-methyl-thiazol-5-yl)-pyrimidin-2-yl]-(4-morpholin-4-yl-phenyl)-amine] showed a melting point of 180 to 183 °C.
Consider `Cc1nc(-c2cccnc2)sc1-c1ccnc(Nc2ccc(N3CCOCC3)c(Cl)c2)n1` [Compound 127, (3-Chloro-4-morpholin-4-yl-phenyl)-[4-(4-methyl-2-pyridin-3-yl-thiazol-5-yl)-pyrimidin-2-yl]-amine], for which the melting point is 230 to 231 °C.
`COCCNS(=O)(=O)c1ccc(Nc2nccc(-c3sc(-c4cccnc4)nc3C)n2)cc1` [Compound 110, N-(2-Methoxy-ethyl)-4-[4-(4-methyl-2-pyridin-3-yl-thiazol-5-yl)-pyrimidin-2-ylamino]-benzenesulfonamide] had a melting point of 252 to 254 °C. Besides, on Aurora A kinase, the IC50 is 1000 nM.
The molecule `CC(=O)NCc1cccc(Nc2nccc(-c3sc(-c4ccc(C)nc4)nc3C)n2)c1` [Compound 108, N-(3-{4-[4-Methyl-2-(6-methyl-pyridin-3-yl)-thiazol-5-yl]-pyrimidin-2-ylamino}-benzyl)-acetamide] had a melting point of 227 to 229 °C. Besides, the IC50 at Aurora A kinase is 2510 nM.
